This assay addresses MetAP-2 (Homo sapiens, UniProt P50579). Nature of the assay: MetAP-2 activity measurement (coupled enzymatic reactions, Met-Arg-Ser substrate, dianisidine detection at 450 nm). Type of assay: biochemical. The following applies: Inhibition of MetAP-2; read-out: IC50 enzyme. The method in brief:
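Coupled continuous assay with Met-Arg-Ser tripeptide substrate: released methionine oxidised by L-amino acid oxidase to give H2O2, which peroxidase uses to oxidise dianisidine, followed at 450 nm. Activity taken as slope of absorbance versus time over the visually linear region; dianisidine extinction coefficient converts to mol Met per time.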

The text below walks through data of patent US10093623B2, “Cyclic amides as MetAP-2 inhibitors” (MERCK PATENT GmbH, priority 2012, dated 2018).

MetAP-2, sequence (P50579 whole entry, species assumed): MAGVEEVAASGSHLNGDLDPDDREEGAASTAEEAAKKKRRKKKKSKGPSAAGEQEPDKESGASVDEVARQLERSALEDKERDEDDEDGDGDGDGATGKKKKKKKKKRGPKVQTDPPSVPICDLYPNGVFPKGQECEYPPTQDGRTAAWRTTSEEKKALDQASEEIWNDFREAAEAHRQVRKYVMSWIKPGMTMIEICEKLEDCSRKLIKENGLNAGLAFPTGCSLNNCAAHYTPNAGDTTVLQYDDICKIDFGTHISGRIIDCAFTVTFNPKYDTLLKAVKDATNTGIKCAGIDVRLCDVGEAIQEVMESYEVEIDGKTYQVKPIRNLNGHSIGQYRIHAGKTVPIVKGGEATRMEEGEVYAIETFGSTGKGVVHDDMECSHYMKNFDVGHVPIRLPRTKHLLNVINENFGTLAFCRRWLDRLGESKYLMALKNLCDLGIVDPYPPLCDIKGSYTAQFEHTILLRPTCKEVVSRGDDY

A word on the IC50: it is the concentration at which inhibition is half-maximal. In the case of `O=C1N(c2ccccc2)CC[C@@]1(O)CNCc1cc(F)cc(Cl)c1` [B58, (R)-3-[(3-Chloro-5-fluorobenzylamino)methyl]-3-hydroxy-1-phenylpyrrolidin-2-one], the IC50 was 1000 to 10000 nM.
The figure for `NC(=O)c1cccc(N2CCC(O)(C(=O)NCc3cc(F)cc(F)c3)C2=O)c1` (centres unmarked) [A178, N-(3,5-Difluorobenzyl)-1-(3-carbamoylphenyl)-3-hydroxy-2-oxopyrrolidine-3-carboxamide] is 10 to 1000 nM; for `NC(=O)c1cccc(NC(=O)c2cccc(N3CCC(O)(C(=O)NCc4cc(F)cc(Cl)c4)C3=O)c2)c1` (centres unmarked) [A69, N-(3-Chloro-5-fluorobenzyl)-1-[3-(3-carbamoylphenylcarbamoyl)-phenyl]-3-hydroxy-2-oxo-pyrrolidine-3-carboxamide] it is 10 to 1000 nM.
In the case of `O=C(NCc1cc(F)cc(Cl)c1)[C@@]1(O)CCN(Cc2n[nH]c3ccccc23)C1=O` [B60, N-(3-Chloro-5-fluorobenzyl)-(S)-3-hydroxy-1-(1H-indazol-3-ylmethyl)-2-oxopyrrolidine-3-carboxamide], the IC50 is 10 to 1000 nM.
The figure for `O=C1CCc2cc(N3CC[C@](O)(C(=O)NCCc4ccccc4F)C3=O)ccc2N1` [B5, N-[2-(2-Fluorophenyl)ethyl]-(S)-3-hydroxy-2-oxo-1-(2-oxo-1,2,3,4-tetrahydroquinolin-6-yl)-pyrrolidine-3-carboxamide] is 10 to 1000 nM; for `O=C1CCc2cc(N3CCC(O)(C(=O)NCCc4ccccc4F)C3=O)ccc2N1` (centres unmarked) [A184, N-[2-(2-Fluorophenyl)ethyl]-3-hydroxy-2-oxo-1-(2-oxo-1,2,3,4-tetrahydroquinolin-6-yl)-pyrrolidine-3-carboxamide] it is 10 to 1000 nM.
As for `O=C(NCc1cc(F)cc(Cl)c1)[C@@]1(O)CCN(c2cc(C(F)(F)F)ccn2)C1=O` [B52, N-(3-Chloro-5-fluorobenzyl)-(S)-3-hydroxy-2-oxo-1-(4-trifluoromethylpyridin-2-yl)-pyrrolidine-3-carboxamide], the figure is 10 to 1000 nM; as for `CC(=O)Nc1ccc(N2CCC(O)(C(=O)NCc3cccc(F)c3Cl)C2=O)cn1` (centres unmarked) [A186, N-(2-Chloro-3-fluorobenzyl)-1-(6-acetylaminopyridin-3-yl)-3-hydroxy-2-oxopyrrolidine-3-carboxamide], 10 to 1000 nM; as for `CN(c1cccc(N2CC[C@](O)(C(=O)NCc3cc(F)cc(Cl)c3)C2=O)c1)S(C)(=O)=O` [A165, N-(3-Chloro-5-fluorobenzyl)-(S)-3-hydroxy-1-[3-(methane-sulfonylmethylamino)phenyl]-2-oxopyrrolidine-3-carboxamide], 10 to 1000 nM.
As for `O=C1CCc2cc(N3CC[C@](O)(C(=O)NCc4ccc(Cl)cc4F)C3=O)ccc2N1` [A241, N-(4-Chloro-2-fluorobenzyl)-(S)-3-hydroxy-2-oxo-1-(2-oxo-1,2,3,4-tetrahydroquinolin-6-yl)-pyrrolidine-3-carboxamide], the figure is 10 to 1000 nM; as for `O=C1CCc2cc(N3CC[C@](O)(C(=O)NCc4c(F)cc(Cl)cc4F)C3=O)ccc2N1` [A249, N-(4-Chloro-2,6-difluorobenzyl)-(S)-3-hydroxy-2-oxo-1-(2-oxo-1,2,3,4-tetrahydroquinolin-6-yl)-pyrrolidine-3-carboxamide], 10 to 1000 nM; as for `O=C(NCc1cc(F)cc(Cl)c1)C1(O)CCN(c2ccc(Cl)c(C(F)(F)F)c2)C1=O` (centres unmarked) [B27, N-(3-Chloro-5-fluorobenzyl)-1-(4-Chloro-3-trifluoromethyl-phenyl)-3-hydroxy-2-oxo-pyrrolidine-3-carboxamide], 10 to 1000 nM.
Take `O=C(N1CCN(CCO)CC1)[C@@]1(O)CCN(c2ccccc2)C1=O` [A57, (S)-3-Hydroxy-3-[4-(2-hydroxy-ethyl)piperazine-1-carbonyl]-1-phenylpyrrolidin-2-one]: the IC50 is above 10000 nM.
As for `O=C(NCc1cc(F)cc(Cl)c1)[C@]1(O)CCN(c2ccc3cc[nH]c3c2)C1=O` [A154, N-(3-Chloro-5-fluorobenzyl)-(R)-3-hydroxy-1-(1H-indol-6-yl)-2-oxopyrrolidine-3-carboxamide], the figure is above 10000 nM.
